From patent US11492671B2, “MiRNAs for treatment and in vitro diagnosis of drug resistant tumors” (ISTITUTI FISIOTERAPICI OSPITALIERI, priority 2018, dated 2022)

Columns and labels:
[1] = test system: sensitive M14 and WM266 melanoma cells; assay: Cell viability / proliferation after transient transfection of miRNAs, with or without a BRAFi; format: cell-based, human; conditions: enforced expression by transient transfection, FIG. 12; for effect of BRAFi on cell viability: in the presence of a BRAFi
Description: (§1) Viability of cells was examined with 3-(4,5-dimethylthiazol-2-yl)-2,5-diphenyltetrazolium bromide Cell Titer 96 AQueous One Solution Cell Proliferation Assay (Promega), according to the manufacturer's protocol. The plates were analyzed in a Multilabel Counter (Bio-Rad Laboratories). Cell viability was also determined by crystal violet staining. Briefly, the cells were stained for 20 min at room temperature with staining solution (0.5% crystal violet in 30% methanol), washed four times with water and then dried. Cells were then dissolved in a Methanol/SDS solution and the adsorbance (595 nm) was read using a microplate ELISA reader.
(§2) Next, the biological consequences of overexpressing or inhibiting the expression of the four selected miRNAs above miR-4443, miR-4488, miR-204-5p and miR-199b-5p were assessed by transient transfections in sensitive M14 and WM266 melanoma cells in the presence or not of a BRAFi in order to evaluate melanoma cell proliferation and apoptosis induction.

[2] = test system: sensitive M14 and WM266 melanoma cells; assay: Apoptosis induction measured by Caspase 3/7 activation after transient transfection, with or without a BRAFi; format: cell-based, human; conditions: enforced expression by transient transfection, FIG. 13; for BRAFi induction of apoptosis, measured by Caspase 3/7 activation: in the presence of a BRAFi
Description: as §2

[3] = test system: drug sensitive and resistant M14 cells; assay: In vitro short term colony formation assay; format: cell-based, human; conditions: overexpression in BRAFi drug resistant cells (M14^R); FIG. 15
Description: as §1, with “reader. […]” for “reader.”

M14^S melanoma cells = assay: Development of BRAFi-resistant colonies under chronic BRAFi exposure; format: cell-based, human; conditions: miRNA overexpressed, cells exposed chronically to a BRAFi (1 μM vemurafenib) for 28 days; FIG. 16
Description: FIG. 16 M14^S melanoma cells were transfected with the indicated miRNAs for 72 h and then stained with Crystal violet (day 0). The remaining plates were treated with 1 μM vemurafenib every 48 h and then stained after 7, 14, 21 and 28 days. Data are mean±s.d. from three independent experiments. P<0.05. The pictures shown are representative of three independent experiments.
Hereafter, the effects of the DOWNMIRNAs on the development of drug resistance in vitro were determined. […] In contrast, growth of control cells transfected with scrambled-miRNA was initially impaired by the presence of a BRAF inhibitor (from 7 to 21 days of drug exposure), but gave rise to resistant colonies at later times (day 28) (FIG. 16).

A375^DR melanoma cells = assay: Colony formation / growth of cells double resistant to BRAF and MEK inhibitors; format: cell-based, human; conditions: miRNAs targeted individually; FIG. 18 left
Text: Data are mean±s.d. from three independent experiments. P<0.05.
Human melanoma cell lines M14 (ATCC® HTB-129™) and A375 (ATCC® CRL-1619™) (both V600E) were from American Type Culture Collection (ATCC®). LOX IMVI (V600E) melanoma cell line (EZT-LOXI-1) was from EZ Byosistems™. WM266 melanoma cell line (V600D)(WM266-4-01-0001) was from ROCKLAND™ antibodies & assays. Resistant melanoma cells were selected by treating them for about two months with increasing drug concentrations every two weeks (from 50 nM to 2 μM). A375^DR cells were selected in the presence of both BRAF and MEK inhibitors, as previously done for M14^R, WM266^R, LOX IMVI^R and A375^R. All human melanoma cell lines used in the present work were cultured in RPMI supplemented with 10% (vol/vol) FBS. Human umbilical vein endothelial cells (HUVEC)s, were employed between the third and the seventh passage, were grown in Eagle Basal Medium (EBM) supplemented with 4% FBS, 0.1% gentamicin, 1 μg/mL hydrocortisone, […] and 12 μg/mL bovine brain extract (Cambrex, Bio Science).
Next, the growth inhibitory effect of simultaneously targeting miRNAs combinations was determined. In detail, for these experiments antagomiRs recognising the UPMIRNAs (amiR-4443: aaaacccacgcctccaa (SEQ ID NO: 10) and amiR-4488: cgccggagcccgccccct (SEQ ID NO: 11)) in different combinations with DOWNMIRNAs mimics (miR-204-5p: […] (SEQ ID NO: 2) and miR-199b-5p […] (SEQ ID NO: 1)) were transiently transfected in melanoma cell lines. […] In addition, the effect of targeting miRNAs individually or in combinations was assessed in a cell line rendered double resistant to both BRAF and MEK inhibitors (called A375^DR). Other investigators have previously reported that double drug resistant melanoma cell lines are more difficult to growth inhibit (5). In fact no growth inhibition was observed effect on A375^DR when the four selected miRNAs were targeted individually (FIG. 18, left panel). […]

[4] = test system: human umbilical vein endothelial cells (HUVEC); assay: Endothelial tube formation assay on matrigel; format: cell-based
Description: Growth factor reduced Matrigel (10 μL/well) was allowed to polymerize for 1 h on angiogenesis 96 well μ-plates (ibidi, GmbH) at 37° C., 5% CO2. HUVEC (5×10^3 cells/well) suspended in 50 μL of pre-warmed Eagle Basal Medium (CTRL), 10% FBS, or conditioned media from WM266^S, or WM266^R cells, were seeded on matrigel and allowed to form tubes at 37° C. in humidified air with 5% CO2 for 6 h. In order to quantify tube formation, images were acquired and the number of tubes formed by cord-like structures exceeding 100 μm in length were visualized using Axiovision 4.8 software (Carl Zeiss) and counted.
This finding was of particular interest in the light of the known involvement of VEGF in melanoma progression and resistance to therapy (23). […] Of note, for our results only tube-like structures exceeding 100 μm in length were considered. […] As control, 10% FBS employed as a source of angiogenic growth factors, elicited a considerable response rising to 204% over basal (FIG. 24). […] In order to find a correlation between miRNAs deregulation and […]

[5] = test system: VEGFA in WM266^R melanoma cells; assay: Western blot analysis of VEGFA protein levels after miRNA transfection; format: cell-based, human; conditions: miRNA overexpressed in WM266^R cells vs Scrambled miRNA; FIG. 26
Text: FIG. 26 WM266^R melanoma cells transfected with Scrambled miRNA or miR-199b-5p were harvested and subjected to Western blot analysis to detect VEGFA and GAPDH protein levels.
Antibodies against VEGFA and GAPDH were obtained from Santa Cruz Biotechnology. Vemurafenib and trametinib were obtained from Selleck Chemicals. TaqMan probes for GAPDH, VEGF, BCL2, miR-4443, miR-4488, miR-204-5p, miR-199b-5p, miR-630, miR-1234, is-3676 (previously named miR-3676-3p), miR-145-5p and RNU48 were purchased from Applied Biosystems. Melanoma cells were lysed with RIPA buffer; 50 μg of total protein were resolved under reducing conditions by 8% SDS-PAGE and transferred to reinforced nitrocellulose (BA-S 83, Schleider and Schuell, Keene, N.H., USA). The membranes were blocked with 5% non fat dry milk in PBS 0.1% Tween 20, and incubated with the different primary antibodies. The membranes were rehydrated and probed with anti-GAPDH, to estimate the protein equal loading. Densitometric analysis was performed using Quantity One Program (Bio-Rad Laboratories GmbH) and results were expressed as mean values from three independent experiments.
VEGF increased expression and release members of miR-199 family were considered (25). […] Therefore, miR-199b-5p was overexpressed in WM266^R cells.

Substance | effect of BRAFi on cell viability [1] | BRAFi induction of apoptosis, measured by Caspase 3/7 activation [2] | A375^DR colony formation / growth inhibition (A375^DR melanoma cells) | further results
miR-4488: UPMIRNA, agggggcgggcuccggcg (SEQ ID NO: 11), enforced expression by transient transfection (AGGGGGCGGGCUCCGGCG; listed as RNA, chemistry not given here; listed as Homo sapiens) | decreases the effect of BRAFi | decreases the effect of BRAFi | – | –
miR-199b-5p: miRNA mimic: cccaguguuuagacuaucuguuc (SEQ ID NO:1) (CCCAGUGUUUAGACUAUCUGUUC; listed as RNA, chemistry not given here; listed as Homo sapiens) | potentiates BRAFi activity | potentiates BRAFi activity | not able to affect | cell proliferation [1]: inhibits cell proliferation; apoptosis (Caspase 3/7 activation) [2]: induces apoptosis; colony formation [3]: strongly impaired colony formation; ability to form BRAFi-resistant colonies (M14^S melanoma cells): completely lost the ability to form BRAFi-resistant colonies; tube formation induced by CM from transfected WM266^R cells ([4]; conditioned medium of WM266^R cells transfected with the miRNA, FIG. 27): lost the capability to induce tube formation; VEGF expression (Western Blot) [5]: able to reduce specifically VEGF expression
Avastin: used to inhibit VEGFR activity; called VEGFR inhibitor [reference compound] | – | – | – | tube formation induced by CM from WM266^R melanoma cells ([4]; addition of VEGFR inhibitor, FIG. 25): significantly inhibited
amiR-4488: antagomiR recognising miR-4488: cgccggagcccgccccct (antisense CGCCGGAGCCCGCCCCCT; listed as DNA, chemistry not given here) | – | – | not able to affect | –
miR-4443: UPMIRNA, uuggaggcguggguuuu (SEQ ID NO: 10), enforced expression by transient transfection (UUGGAGGCGUGGGUUUU; listed as RNA, chemistry not given here; listed as Homo sapiens) | decreases the effect of BRAFi | decreases the effect of BRAFi | – | –
amiR-4443: antagomiR recognising miR-4443: aaaacccacgcctccaa (antisense AAAACCCACGCCTCCAA; listed as DNA, chemistry not given here) | – | – | not able to affect | –
